Patent US9243247B2, “Composition for promoting apoptosis or inhibiting cell growth, comprising epstein-barr virus microrna” (Catholic University Industry Academic Cooperation Foundation, priority 2011, dated 2016)

What was measured:
Type in all cases: cell-based
AGS cell strain [1] = experiment: Cell growth test (CCK-8 assay) after transfection of BART miRNA mimics; conditions: mimic 10 nM, 72 hours after transfection, relative to scrambled control (=1)
Protocol: An AGS cell strain (Korean Cell Line Bank), which is a stomach cancer cell strain, was cultured in an RPMI1640 (Gibco) culture medium including 10% fetal bovine serum. Mature type synthesized BART miRNAs were transfected to the AGS cell strain by using G-fectin (Genolution) according to a protocol of the manufacture.
To investigate the effect of individual EBV BART miRNAs on the AGS cell strain, the synthesized miRNAs were transfected to the AGS cell strain and, after 72 hours, cells were counted by CCK-8 assay.
Immediately after the AGS cell strain, which is an EBV-negative cell strain, was divided into 96-well plate having 1×10^3 cells/well, a synthesized miRNA (10 nM) was transfected by using G-fectin. After the transfection, according to the experimental objective, the cells were cultured at 37° C. in an incubator, and then CCK-8 was divided among the wells by allocating 10 μl of CCK-8 to each well and the resulting mixture was cultured in an incubator at 37° C. for two hours. Then, the light absorbance was measured with an ELISA measuring instrument.
By the method described in Example 3, miR-BART5-5p mimic or miR-BART15-3p mimic (10 nM) were transfected to the AGS cell strain, and the effect thereof on cell growth was investigated over time.
miR-BART5-5p, miR-BART15-3p, and miR-BART20-3p were transfected to the AGS cell strain (1×10^3 cells/well) in a concentration of 1, 3, 10, and 30 nM, and the effect on cell growth was investigated. Immediately after the AGS cell strain was divided into a 96-well plate such that 1×10^3 AGS cells were allocated to each well, a synthesized miRNA was transfected by using G-fectin. Seventy two hours after the transfection, CCK-8 was divided among the wells by allocating 10 μl of CCK-8 to each well, and the resulting mixture was cultured at 37° C. in an incubator for two hours.

AGS cell strain [2] = experiment: Effect on cell cycle (propidium iodide staining, FACS, sub G1); conditions: mimic 10 nM, 10 uM 5-FU 24 h after transfection, then 48 hours, relative to scrambled control (=1)
Protocol: The AGS cells were divided into a 96-well plate such that 2×10^5 AGS cells were allocated to each well, and synthesized miRNAs (10 nM) were transfected and cultured at 37° C. in an incubator. Twenty four hours after the transfection, 10 uM of 5-FU, which is an anti-cancer agent, was treated in one case or not treated in another case, and then the resulting mixture was cultured in an incubator at 37° C. for 48 hours. The cells were detached by using Trypsin-EDTA and washed with PBS two times.
Immediately after the AGS cell strains, which are EBV-negative cell strains, were divided into a 6-well plate such that 2×10^5 AGS cells were allocated to each well, a synthesized miRNA (10 nM) was transfected by using G-fectin and cultured at 37° C. in an incubator. Twenty four hours after the transfection, 10 uM of 5-FU was treated and the resulting mixture was cultured at 37° C. in an incubator for 48 hours. The cells were detached by using Trypsin-EDTA and washed with PBS two times. Afterwards, DNA was stained by propidium iodide staining and the ratio of cells where cell cycle was changed was investigated by FACS.

AGS cell strain [3] = experiment: Measurement of apoptosis (Annexin V staining, FACS); conditions: for Relative Apoptotic cell: AGS, mimic 10 nM, 10 uM 5-FU 24 h after transfection, then 48 hours, Annexin V, relative to scrambled control (=1), n=9; for effect on cell growth and apoptosis (summary statement): mimics transfected to AGS, tumor cell strain not infected with EBV
Protocol: Immediately after the AGS cell strain, which is an EBV-negative cell strain, was divided was divided into a 6-well plate such that 2×10^5 AGS cells were allocated to each well, a synthesized miRNA (10 nM) was transfected by using G-fectin and the resulting mixture was cultured at 37 t in an incubatorTwenty four hours after the transfection, 10 uM of 5-FU was treated and the resulting mixture was cultured in an incubator at 37° C. for 48 hours. The cells were detached by using Trypsin-EDTA and washed with PBS two times. Afterwards, the cells were treated with a PE Annexin V Apoptosis Detection Kit and the changed ratio of apoptotic cell was investigated by FACS (FIG. 7).
Immediately after the AGS cell strain, which is an EBV-negative cell strain, is divided into a 6-well plate such that 2×10^5 AGS cells were allocated to each well, a synthesized miRNA (10 nM) was transfected by using G-fectin and the resulting mixture was cultured at 37° C. Twenty four hours after the transfection, 10 uM of 5-FU, which is an anti-cancer agent, was treated and the resulting mixture was cultured in an incubator at 37° C. for 48 hours. The cells were detached by using Trypsin-EDTA and washed with PBS two times. Afterwards, the cells were treated with a PE Annexin V Apoptosis Detection Kit and the ratio of cells where apoptosis took place was measured by FACS.

Substance	Relative Cell Growth (AGS cell strain [1]; n=9)	Relative Sub G1 (AGS cell strain [2])	Relative Apoptotic cell (AGS cell strain [3])	also measured
BART19-5p: EBV BART miRNA mimic, double stranded RNA; sense SEQ NO: 69, antisense SEQ NO: 70 (sense ACAUUCCCCGCAAACAUGACAUG; antisense CAUGUCAUGUUUGCGGGGAAUGU; chemistry not given here)	1.151	1.349	1.071	Relative Sub G1 (AGS cell strain [2]; listed as 19-5p): increased
BART9-3p: EBV BART miRNA mimic, double stranded RNA; sense SEQ NO: 51, antisense SEQ NO: 52 (sense UAACACUUCAUGGGUCCCGUAGU; antisense ACUACGGGACCCAUGAAGUGUUA; chemistry not given here)	1.569	0.8669	0.7948	–
BART18-5p: EBV BART miRNA mimic, double stranded RNA; sense SEQ NO: 37, antisense SEQ NO: 38 (sense UCAAGUUCGCACUUCCUAUACA; antisense UGUAUAGGAAGUGCGAACUUGA; chemistry not given here)	1.395	0.9828	1.202	Relative Apoptotic cell (AGS cell strain [3]; listed as 18-5p): significantly higher; effect on cell growth and apoptosis (summary statement) (AGS cell strain [3]): inhibit cell growth and promote apoptosis
BART6-3p: EBV BART miRNA mimic, double stranded RNA; sense SEQ NO: 31, antisense SEQ NO: 32 (sense CGGGGAUCGGACUAGCCUUAGA; antisense UCUAAGGCUAGUCCGAUCCCCG; chemistry not given here)	0.9101	1.24	1.018	Relative Sub G1 (AGS cell strain [2]; listed as 6-3p): increased
BART12-3p: EBV BART miRNA mimic, double stranded RNA; sense SEQ NO: 67, antisense SEQ NO: 68 (sense UCCUGUGGUGUUUGGUGUGGUU; antisense AACCACACCAAACACCACAGGA; chemistry not given here)	1.102	1.317	1.084	Relative Sub G1 (AGS cell strain [2]; listed as 12-3p): increased
BART14-3p: EBV BART miRNA mimic, double stranded RNA; sense SEQ NO: 83, antisense SEQ NO: 84 (sense UAAAUGCUGCAGUAGUAGGGAU; antisense AUCCCUACUACUGCAGCAUUUA; chemistry not given here)	1.447	0.8757	0.9426	–
BART8-3p: EBV BART miRNA mimic, double stranded RNA; sense SEQ NO: 47, antisense SEQ NO: 48 (sense GUCACAAUCUAUGGGGUCGUAGA; antisense UCUACGACCCCAUAGAUUGUGAC; chemistry not given here)	1.396	0.9616	1.072	–
BART17-5p: EBV BART miRNA mimic, double stranded RNA; sense SEQ NO: 25, antisense SEQ NO: 26 (sense UAAGAGGACGCAGGCAUACAAG; antisense CUUGUAUGCCUGCGUCCUCUUA; chemistry not given here)	0.9551	1.099	1.004	–
BART13-5p: EBV BART miRNA mimic, double stranded RNA; sense SEQ NO: 77, antisense SEQ NO: 78 (sense AACCGGCUCGUGGCUCGUACAG; antisense CUGUACGAGCCACGAGCCGGUU; chemistry not given here)	1.326	1.178	1.077	Relative Sub G1 (AGS cell strain [2]; listed as 13-5p): increased; Relative Apoptotic cell (AGS cell strain [3]; listed as 13-5p): significantly higher; effect on cell growth and apoptosis (summary statement) (AGS cell strain [3]): inhibit cell growth and promote apoptosis
BART21-5p: EBV BART miRNA mimic, double stranded RNA; sense SEQ NO: 33, antisense SEQ NO: 34 (sense UCACUAGUGAAGGCAACUAAC; antisense GUUAGUUGCCUUCACUAGUGA; chemistry not given here)	1.304	1.087	0.9207	–
BART20-5p: EBV BART miRNA mimic, double stranded RNA; sense SEQ NO: 73, antisense SEQ NO: 74 (sense UAGCAGGCAUGUCUUCAUUCC; antisense GGAAUGAAGACAUGCCUGCUA; chemistry not given here)	1.245	1.379	1.075	Relative Sub G1 (AGS cell strain [2]; listed as 20-5p): increased
BART16-5p: EBV BART miRNA mimic, double stranded RNA; sense SEQ NO: 21, antisense SEQ NO: 22 (sense UUAGAUAGAGUGGGUGUGUGCUCU; antisense AGAGCACACACCCACUCUAUCUAA; chemistry not given here)	0.705	1.182	1.312	Relative Cell Growth (AGS cell strain [1]; n=9, listed as miR-BART16-5p): inhibited cell growth; Relative Sub G1 (AGS cell strain [2]; listed as 16-5p): increased; Relative Apoptotic cell (AGS cell strain [3]; listed as 16-5p): significantly higher; effect on cell growth and apoptosis (summary statement) (AGS cell strain [3]): inhibit cell growth and promote apoptosis
BART14-5p: EBV BART miRNA mimic, double stranded RNA; sense SEQ NO: 81, antisense SEQ NO: 82 (sense UACCCUACGCUGCCGAUUUACA; antisense UGUAAAUCGGCAGCGUAGGGUA; chemistry not given here)	1.408	0.9076	1.054	–
